Values of other authors as cited in patent US7585520B2, “Compositions containing both sedative and non-sedative antihistamines and sleep aids” (Collegium Pharmaceutical, Inc., priority 2001, dated 2009).

Details: drug or active metabolite

SMILES	Elimination half-life [h]
COc1ccc(CCN2CCC(Nc3nc4ccccc4n3Cc3ccc(F)cc3)CC2)cc1 [Astemizole]	20 to 30
Clc1ccc2c(c1)CCc1cccnc1C2=C1CCNCC1 [Descarboethoxyloratidine]	17.3 to 24
Oc1ccc(CCN2CCC(Nc3nc4ccccc4n3Cc3ccc(F)cc3)CC2)cc1 [Desmethylastemizole]	290
CC(C)(C)c1ccc(C(=O)CCCN2CCC(OC(c3ccccc3)c3ccccc3)CC2)cc1 [Ebastine]	13 to 16
CN(c1nccc(=O)[nH]1)C1CCN(c2nc3ccccc3n2Cc2ccc(F)cc2)CC1 [Mizolazine]	8 to 13
